Common to all, as to type: biochemical
The target in one experiment is T1, HaCHI1 (Haplopteris amboinensis, UniProt A0A4Y6I1E6).
T1 sequence (A0A4Y6I1E6 1-214): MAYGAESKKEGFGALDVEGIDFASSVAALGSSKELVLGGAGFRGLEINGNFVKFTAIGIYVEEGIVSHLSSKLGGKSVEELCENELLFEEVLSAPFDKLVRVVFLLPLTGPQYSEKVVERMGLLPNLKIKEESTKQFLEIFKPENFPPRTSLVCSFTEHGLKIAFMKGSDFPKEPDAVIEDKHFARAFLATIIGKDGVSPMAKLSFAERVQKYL
The experiment in a line: HPLC product analysis.

For another experiment, the target named is T2, AdcCHI1 (Adiantum caudatum, UniProt A0A4Y6I1H0).
T2 sequence (A0A4Y6I1H0 1-214): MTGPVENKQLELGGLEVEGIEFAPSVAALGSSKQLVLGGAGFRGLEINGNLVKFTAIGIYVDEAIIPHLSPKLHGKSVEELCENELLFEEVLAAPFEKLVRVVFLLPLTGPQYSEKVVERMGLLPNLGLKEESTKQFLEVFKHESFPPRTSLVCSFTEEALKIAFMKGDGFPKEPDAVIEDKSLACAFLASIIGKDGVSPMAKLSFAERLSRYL
Put plainly: HPLC product analysis.

Another experiment concerns the target T3, PvCHI1 (Pteris vittata, UniProt A0A4Y6I0P5).
T3 sequence (A0A4Y6I0P5 1-214): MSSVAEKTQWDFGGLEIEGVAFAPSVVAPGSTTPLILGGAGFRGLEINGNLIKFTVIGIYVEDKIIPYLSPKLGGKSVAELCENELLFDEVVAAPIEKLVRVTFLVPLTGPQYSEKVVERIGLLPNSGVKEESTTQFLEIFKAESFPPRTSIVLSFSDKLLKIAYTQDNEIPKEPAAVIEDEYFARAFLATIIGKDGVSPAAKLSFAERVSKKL
Put plainly: HPLC product analysis.

Another experiment addresses T4, LoCHS1 (Lindsaea orbiculata, UniProt A0A4Y6I0N8).
T4 sequence (A0A4Y6I0N8 1-405): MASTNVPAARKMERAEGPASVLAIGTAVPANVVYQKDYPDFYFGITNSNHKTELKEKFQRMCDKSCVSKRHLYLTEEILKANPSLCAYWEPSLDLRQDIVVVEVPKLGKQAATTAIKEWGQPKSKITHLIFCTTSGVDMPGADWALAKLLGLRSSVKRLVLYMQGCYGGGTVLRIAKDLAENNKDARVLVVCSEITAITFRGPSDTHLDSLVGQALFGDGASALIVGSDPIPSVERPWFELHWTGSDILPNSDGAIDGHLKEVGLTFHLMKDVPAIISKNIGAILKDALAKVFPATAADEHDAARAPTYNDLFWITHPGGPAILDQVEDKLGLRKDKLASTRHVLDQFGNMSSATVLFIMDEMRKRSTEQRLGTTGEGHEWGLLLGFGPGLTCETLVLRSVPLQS
Put plainly: LC-MS product analysis. The note with it: 100 μM malonyl-CoA, 50 mM potassium phosphate pH 6.5, 35 °C, no CHIL.

The target of another experiment is T5, LoCHS2 (Lindsaea orbiculata, UniProt A0A4Y6I0P0).
T5 sequence (A0A4Y6I0P0 1-439): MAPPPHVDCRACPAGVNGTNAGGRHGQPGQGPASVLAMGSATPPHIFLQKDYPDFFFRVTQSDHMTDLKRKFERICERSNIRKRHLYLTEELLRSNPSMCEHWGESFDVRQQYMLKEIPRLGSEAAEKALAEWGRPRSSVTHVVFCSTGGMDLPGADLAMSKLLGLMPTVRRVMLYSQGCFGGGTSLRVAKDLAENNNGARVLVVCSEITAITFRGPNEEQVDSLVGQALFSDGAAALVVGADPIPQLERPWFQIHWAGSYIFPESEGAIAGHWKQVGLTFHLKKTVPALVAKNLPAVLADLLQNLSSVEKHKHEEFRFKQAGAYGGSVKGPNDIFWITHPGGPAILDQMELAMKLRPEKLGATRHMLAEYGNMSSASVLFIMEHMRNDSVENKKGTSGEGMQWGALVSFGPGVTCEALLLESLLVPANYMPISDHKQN
Put plainly: LC-MS product analysis. The note with it: 100 μM malonyl-CoA, 50 mM potassium phosphate pH 6.5, 35 °C, no CHIL.

The mark [1] stands for this setting: 50 μM substrate, 50 mM Tris-HCl pH 7.5, 25 °C.

Drawing on paper PMC6913697 (Journal of Experimental Botany, 2019), this text covers HPLC product analysis and LC-MS product analysis for three molecules.

`O=C(/C=C/c1ccc(O)cc1)c1ccc(O)cc1O` [isoliquiritigenin]: the HPLC product analysis entry at HaCHI1 (setting [1]) is “AcCHI1, AdcCHI1, AcaCHI1, HaCHI1, and PvCHI1 were all able to catalyze type II-specific substrates”; on AdcCHI1 (setting [1]) it was “AcCHI1, AdcCHI1, AcaCHI1, HaCHI1, and PvCHI1 were all able to catalyze type II-specific substrates”; at PvCHI1 (setting [1]), “AcCHI1, AdcCHI1, AcaCHI1, HaCHI1, and PvCHI1 were all able to catalyze type II-specific substrates”.
For the molecule `O=C(/C=C/c1ccc(O)cc1)c1c(O)cc(O)cc1O` [naringenin chalcone], the HPLC product analysis entry on HaCHI1 (room temperature, 1 min) is “the other five (AcCHI1, AcaCHI1, AdcCHI1, HaCHI1, and PvCHI1) exhibited slight type II CHI activity”; on AdcCHI1 (room temperature, 1 min), “the other five (AcCHI1, AcaCHI1, AdcCHI1, HaCHI1, and PvCHI1) exhibited slight type II CHI activity”; on PvCHI1 (room temperature, 1 min) it was “the other five (AcCHI1, AcaCHI1, AdcCHI1, HaCHI1, and PvCHI1) exhibited slight type II CHI activity”.
For the molecule `CC(C)(COP(=O)(O)OP(=O)(O)OC[C@H]1O[C@@H](n2cnc3c(N)ncnc32)[C@H](O)[C@@H]1OP(=O)(O)O)[C@@H](O)C(=O)NCCC(=O)NCCSC(=O)/C=C/c1ccc(O)cc1` [p-coumaroyl-CoA], the LC-MS product analysis result was “reactions were provided with p-coumaroyl-CoA and malonyl-CoA” at LoCHS1; “reactions were provided with p-coumaroyl-CoA and malonyl-CoA” on LoCHS2.
